Data on twelve molecules can be found in US20070203749A1 (priority 2005, published 2007).

Read-outs that look alike come from different tables or passages of the source.

The target in experiment [1] is XIAP-Bir3 (Homo sapiens, UniProt P98170). The experiment is described as follows: Fluorescence polarization binding assay, purified XIAP BIR-3 domain. On the procedure: (§1) Binding constants were measured using fluorescence polarization as described in Zancta Nikolovska-Coleska et al., (2004) Analytical biochemistry, 332, 261-273. Briefly, various known concentrations of each test peptide were mixed with 5 nM fluorescently labeled peptide (AbuRPF-K(5-Fam)—NH2; FP peptide) and 40 nM of XIAP-Bir3, cIAP-1-Bir3 or cIAP-2-Bir3 in 100 μl of 0.1M Potassium Phosphate buffer, pH 7.5 containing 100 μg/ml bovine γ-globulin. These mixtures were incubated for 15 min at room temperature (approximately 22° C.). Following incubation, the polarization values (mP) were measured on a Victor^2V using a 485 nm excitation filter and a 535 nm emission filter. Kj(app) values were determined from the plot using nonlinear least-squares analysis using GraphPad Prism (Table 8).
(§2) In any event, binding to cIAP-1 and cIAP-2 or other IAPs can be determined using standard binding affinity assays, as illustrated above. […] We have utilized the specificity of this IAP binding motif in a fluorescence polarization assay to measure the binding affinities for cIAP-1 and cIAP-2 Antagonists. The fluorescence polarization assay consists of FP peptide, and the recombinant BIR3 domain of the XIAP protein. The FP peptide and mimics of the […] compete for binding to the BIR3 protein. […] If a peptide, peptidomimetic, or other small molecule being tested is a competitor, then it succeeds in displacing the FP peptide, resulting in a low mP value. Molecules that compete with the FP l peptide can be titrated and IC50 values determined (GraphPad Prism nonlinear regression curve-fitting program) by plotting mp values as the direct measure of fraction bound vs, the log of the compound concentration.
On the technique in general: Fluorescence polarisation rises when a labelled molecule tumbles more slowly, as on binding a larger partner.

Experiment [2] concerns the target cIAP-2-Bir3 (Homo sapiens, UniProt Q13489). Nature of the experiment: Fluorescence polarization binding assay, purified cIAP-2 BIR-3 domain. Here is the method:
as §1, §2

In experiment [3] the target is cIAP-1-Bir3 (Homo sapiens, UniProt Q13490). The experiment is described as follows: Fluorescence polarization binding assay, purified cIAP-1 BIR-3 domain. As to conditions: for Kd: BIR-3 domain; for binding to cIAP-1 and cIAP-2 relative to XIAP (fold more tightly): ratio of binding constants vs XIAP. On the procedure: as §1, §2
The subject of experiment [4] is SK-OV-3 cells. Nature of the experiment: MTT assay, growth inhibition of ovarian cancer cell line SK-OV-3. Type of experiment: cell-based. Conditions: Homo sapiens; for CC50: SK-OV-3 cells, 72 hrs, concentration giving 50% cell survival, Table 8; for EC50: SK-OV-3, SKOV-3 cells, Table 10. On the procedure: The MTT assay was described in Hansen, M. B., Nielson, S. E., and Berg, K. (1989) J. Immunol Methods 119, 203-210 and incorporated herein by reference in its entirety. Briefly, SK-OV-3 cells were seeded in 96-well plates in McCoy's medium containing 10% fetal bovine serum albumin (10,000 per well) and incubated overnight at 37° C. […] This incubation time was optimal for measuring inhibitory effects of different analogs. 50 microliters of 5 mg/mL MTT reagent was added to each well, and the plates were incubated at 37° C. for 3 hours. At the end of the incubation period, 50 microliters of DMSO was added to each well to dissolve cells, and the optical density (OD) of the wells was measured with a microplate reader (Victor^2 1420, Wallac, Finland) at 535 nm. Cell survival (CS) was calculated using the following equation: CS=(OD treated well/mean OD control wells)×100%
The EC50 (Table 1). defined as the drug concentration that results in 50% CS, was derived by calculating the point where the dose-response curve crosses the 50% CS point using GraphPad Prism.

In experiment [5] the test system is OVCAR-3 cells. The experiment is described as follows: Synergistic toxicity with SN-38 (topoisomerase I inhibitor). Type of experiment: cell-based. As to conditions: compared between Compounds N and H.
In experiment [6] the target is T1, XIAP (Homo sapiens, UniProt P98170).
T1 construct: endogenous in cells; host or cells: SK-OV-3
Nature of the experiment: Effect of proteasome inhibitor on IAP degradation, western blot, XIAP. Type of experiment: cell-based. Conditions: SK-OV-3 cells, 20 hrs, absence of bortezomib. On the procedure:
(§3) Cells were harvested after trypsinization by centrifuging at 2000 rpm for 10 min. The cell pellet was washed with PBS and lysed with RIPA to disrupt the cell membrane. The lysate after centrifugation was loaded onto a 5-20% polyacrylamide gel to separate the proteins. A Western blot was carried out using standard techniques and probed for XIAP and cIAP-1 proteins as described above.
(§4) Similarly, IAP degradation assays can be carried out by well known techniques, as illustrated above. […] Ubiquitinated protein is then escorted to the 26S proteasome where it undergoes final degradation and the ubiquitin is released and recycled. Once cIAP-1 Antagonists bind to cIAP-1, it results in perturbation of cell survival complexes or dissociation of natural ligands, signaling IAPs to either self ubiquinate or become targets for ubiquitination followed by proteasomal degradation. […] To further elucidate the machinery involved with this phenomenon, we focused on the regulation of IAP stability and asked whether or not the proteasome was involved in the degradation of cIAP-1 and XIAP.
(In general: Immunoblotting shows a protein as a band on a membrane.)

Experiment [7] deals with T2, cIAP-1 (Homo sapiens, UniProt Q13490).
T2 construct: endogenous in cells; host or cells: SK-OV-3
The experiment is described as follows: Effect of proteasome inhibitor on IAP degradation, western blot, cIAP-1. Format: cell-based. Conditions: SK-OV-3 cells, 20 hrs, absence of bortezomib. Here is the method:
as §3, §4

The subject of experiment [8] is SK-OV-3^S cells. The experiment is described as follows: MTT assay, TRAIL sensitivity of parental SK-OV-3^S cells. Type of experiment: cell-based. As to conditions: SK-OV-3^S cells (parental). Here is the method: (§5) Another unexpected observation we made was with respect to TRAIL sensitivity. IAP Antagonist-resistant […] cells (SK-OV-3^R) were generated by exposing the parental SK-OV-3 cells ([…]) to an IAP antagonist compound at a concentration that kills 95% of cells. Three days later, viable cells were transferred to a fresh flask and grown to confluency. Two weeks later, the cells were tested for IAP Antagonist sensitivity in an MTT assay as describe above and as expected, found these cells to be resistant to IAP Antagonist cytotoxicity.
On the technique in general: Tetrazolium assays rely on reduction of a dye to a coloured formazan, in cell work by metabolically active cells.

The subject of experiment [9] is SK-OV-3^R cells. Nature of the experiment: MTT assay on IAP Antagonist-resistant SK-OV-3^R cells. Format: cell-based. As to conditions: SK-OV-3^R cells (IAP Antagonist-resistant). Here is the method:
as §5

The mark [10] stands for this setting: fluorescence polarization, Table 8, read-out: XIAP, Kβ(spp).
The mark [11] stands for this setting: fluorescence polarization, Table 8, read-out: cIAP-2, Kd(apβ).
The mark [12] stands for this setting: fluorescence polarization, Table 8, read-out: cIAP-1, Kd(3pp).
[13] abbreviates: Table 10, read-out: Kd(App), XIAP.
[14] abbreviates: Table 10, read-out: Kd(App), cIAP-2.
[15] abbreviates: Table 10, read-out: Kd(App), c-IAP-1.

cIAP-1-Bir3, sequence (Q13490 253-363 limits assumed): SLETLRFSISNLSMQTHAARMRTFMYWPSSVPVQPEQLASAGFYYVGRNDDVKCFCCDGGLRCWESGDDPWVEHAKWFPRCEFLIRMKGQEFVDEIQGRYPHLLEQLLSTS
cIAP-2-Bir3, sequence (Q13489 238-349 limits assumed): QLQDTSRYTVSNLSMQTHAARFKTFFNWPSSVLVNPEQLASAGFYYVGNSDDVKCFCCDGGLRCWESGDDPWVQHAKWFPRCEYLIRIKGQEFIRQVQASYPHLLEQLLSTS
XIAP-Bir3, sequence (P98170 241-356 limits assumed): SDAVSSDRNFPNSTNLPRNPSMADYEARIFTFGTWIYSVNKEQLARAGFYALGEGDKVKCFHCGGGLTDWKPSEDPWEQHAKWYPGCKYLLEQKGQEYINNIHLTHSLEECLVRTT
T2 sequence (Q13490 whole entry): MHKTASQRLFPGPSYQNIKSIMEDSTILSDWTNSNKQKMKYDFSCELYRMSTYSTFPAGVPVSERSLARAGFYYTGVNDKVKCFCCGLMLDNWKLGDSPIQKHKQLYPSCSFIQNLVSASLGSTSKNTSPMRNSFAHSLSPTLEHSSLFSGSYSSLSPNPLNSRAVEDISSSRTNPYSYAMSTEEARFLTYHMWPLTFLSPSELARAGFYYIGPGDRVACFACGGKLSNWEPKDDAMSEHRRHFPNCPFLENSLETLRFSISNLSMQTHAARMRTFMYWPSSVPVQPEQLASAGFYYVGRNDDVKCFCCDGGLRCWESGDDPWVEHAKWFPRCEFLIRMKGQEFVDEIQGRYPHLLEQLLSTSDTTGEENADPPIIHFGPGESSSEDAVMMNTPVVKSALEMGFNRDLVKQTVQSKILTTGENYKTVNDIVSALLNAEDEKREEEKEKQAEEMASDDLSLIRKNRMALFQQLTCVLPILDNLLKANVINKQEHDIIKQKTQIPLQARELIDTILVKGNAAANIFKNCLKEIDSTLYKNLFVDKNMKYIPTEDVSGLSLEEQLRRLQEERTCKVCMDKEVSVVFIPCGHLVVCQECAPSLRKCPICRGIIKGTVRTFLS
T1 sequence (P98170 whole entry): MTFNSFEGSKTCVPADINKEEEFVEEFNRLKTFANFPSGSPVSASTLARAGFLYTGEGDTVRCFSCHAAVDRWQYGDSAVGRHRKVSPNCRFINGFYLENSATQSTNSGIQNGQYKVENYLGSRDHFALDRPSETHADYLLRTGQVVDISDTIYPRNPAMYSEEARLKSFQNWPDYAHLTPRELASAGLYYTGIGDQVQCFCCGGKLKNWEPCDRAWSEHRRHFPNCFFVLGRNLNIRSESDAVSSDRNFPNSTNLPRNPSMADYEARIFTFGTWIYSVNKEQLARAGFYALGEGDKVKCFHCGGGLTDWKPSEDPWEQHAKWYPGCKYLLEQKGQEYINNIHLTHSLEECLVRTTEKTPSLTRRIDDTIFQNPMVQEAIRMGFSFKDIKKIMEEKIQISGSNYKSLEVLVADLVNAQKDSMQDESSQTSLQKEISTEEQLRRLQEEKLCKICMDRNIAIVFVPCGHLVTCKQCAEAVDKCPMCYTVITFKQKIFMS

One may read the CC50 as the concentration at which the toxic effect on the cells reaches its halfway point. The low end stands for harm at low concentration, the high end for better tolerance by the cells. For the molecule `CCC(C)[C@H](NC(=O)[C@H](C)NC)C(=O)N1CCC[C@H]1Cc1c2n(c3ccc(F)cc13)CCn1c-2c(C[C@@H]2CCCN2C(=O)[C@@H](NC(=O)[C@H](C)NC)C(C)CC)c2cc(F)ccc21` (some centres unmarked) [A], the Kd in experiment [1] (setting [10]) is 10 nM; in experiment [2] (setting [11]) it was 14 nM; in experiment [3] (setting [12]) it was 0.5 nM. Also, in experiment [4], the midpoint of cytotoxicity, the CC50, lay at 0.0002 µM.
One may read the EC50 as the concentration needed to bring the measured effect to its halfway point. With `CNC(C)C(=O)NC(C(=O)N1CC(OC(C)=O)CC1Cc1c[nH]c2ccccc12)C(C)C` (centres unmarked) [Compound H], the Kd in [1] (setting [13]) stood at 117 nM; in experiment [1] (setting [10]) it was 120 nM; in experiment [2] (setting [14]) it was 46 nM; in experiment [3] (setting [15]), 1 nM. The “binding to cIAP-1 and cIAP-2 relative to XIAP (fold more tightly)” value in [3] is given as 117 fold. In experiment [5], the “synergistic toxicity with SN-38, synergistic volume” value is reported as “comparable”. For the same molecule, the 50% effective concentration (EC50) in experiment [4] amounted to 7 nM. In experiment [4], this molecule showed a CC50 of 0.007 µM.
For the molecule `CNC(C)C(=O)NC(C(=O)N1CCCC1Cc1c[nH]c2ccc(C)cc12)C(C)O` (centres unmarked) [Compound K], the Kd amounted to 310 nM in [1] (setting [10]), 6 nM in experiment [2] (setting [11]) and 8 nM in experiment [3] (setting [12]). For the same molecule, half-maximal cytotoxicity in [4] (CC50) was put at 0.002 µM.
On the same counts, the results for `CC(C)C(NC(=O)CN)C(=O)N1CC(Oc2ccccc2)CC1Cc1coc2ccccc12` (centres unmarked) [D] are 160 nM, 33 nM, 17 nM and 0.043 µM.
The like results for `CNC(C)C(=O)NC(C(=O)N1CCCC1Cc1c(-c2ccc(C(=O)OC)cc2)n(CCOCCOCCOC)c2cc(F)ccc12)C(C)(C)C` (centres unmarked) [E] were, in that order, 90 nM, 8 nM, 16 nM and 0.046 µM.
On the same counts, the results for `CNC(C)C(=O)NC(C(=O)N1CCCC1Cc1c(-c2ccc(F)cc2)n(CCOCCOCCOC)c2cc(F)ccc12)C(C)(C)C` (centres unmarked) [F] are 820 nM, 120 nM, 26 nM and 0.079 µM.
As to `CNC(C)C(=O)NC(C(=O)N1CCCC1Cc1c(-c2ccc(N3CCOCC3)cc2)n(CCOCCOCCOC)c2cc(F)ccc12)C(C)(C)C` (centres unmarked) [G], the Kd in [1] (setting [10]) was found to be 400 nM; in [2] (setting [11]), 180 nM; in experiment [3] (setting [12]), 130 nM. Besides, the CC50 in [4] is 0.28 µM.
On the same counts, the results for `CNC(C)C(=O)NC(C(=O)N1CC(OC(C)=O)CC1Cc1c[nH]c2ccccc12)C(C)(C)C` (centres unmarked) [I] are 200 nM, 50 nM, 72 nM and 0.004 µM.
`CNC(C)C(=O)NC(C(=O)N1CC(OC(C)=O)CC1Cc1c[nH]c2ccccc12)C(C)O` (centres unmarked) [J]: the Kd in experiment [1] (setting [10]) turned out to be 460 nM; in experiment [2] (setting [11]) it was 26 nM; in experiment [3] (setting [12]), 53 nM. The molecule further had a CC50 in [4] of 0.008 µM.
For `CNC(C)C(=O)NC(C(=O)N1CC(O)CC1Cc1c(-c2ccc(-c3[nH]c4ccccc4c3CC3CC(O)CN3C(=O)C(NC(=O)C(C)NC)C(C)(C)C)cc2)[nH]c2ccccc12)C(C)(C)C` (centres unmarked) [N], the Kd in experiment [1] (setting [13]) worked out at 1 nM; in experiment [2] (setting [14]), 6 nM; in experiment [3] (setting [15]) it was 1 nM. In addition, in [3], the “binding to cIAP-1 and cIAP-2 relative to XIAP (fold more tightly)” value was “comparable affinity”. Moreover, in [5], the “synergistic toxicity with SN-38, synergistic volume” value was “comparable”. Also, a half-maximal response in experiment [4] (EC50) required 7 nM.
As for `CN[C@@H](C)C(=O)N[C@H](C(=O)N1CCC[C@H]1Cc1c(-c2ccc(-c3c(C[C@@H]4CCCN4C(=O)[C@@H](NC(=O)[C@H](C)NC)C(C)(C)C)c4ccc(F)cc4n3CCO)cc2)n(CCO)c2cc(F)ccc12)C(C)(C)C` [Q], in [6], the “XIAP protein level by western blot” value is on record as “complete disappearance”. The “cIAP-1 protein level by western blot” value in [7] is “complete disappearance”.

B1: TRAIL: tumor necrosis factor-related apoptosis inducing ligand, member of the TNF superfamily that induces apoptosis through death receptors (protein, UniProt P50591 1-281, looked up)
Tumor necrosis factor ligand …: MAMMEVQGGPSLGQTCVLIVIFTVLLQSLCVAVTYVYFTNELKQMQDKYSKSGIACFLKEDDSYWDPNDEESMNSPCWQVKWQLRQLVRKMILRTSEETISTVQEKQQNISPLVRERGPQRVAAHITGTRGRSNTLSSPNSKNEKALGRKINSWESSRSGHSFLSNLHLRNGELVIHEKGFYYIYSQTYFRFQEEIKENTKNDKQMVQYIYKYTSYPDPILLMKSARNSCWSKDAEYGLYSIYQGGIFELKENDRIFVSVTNEHLIDMDHEASFFGAFLVG
For B1, the “TRAIL sensitivity in MTT assay” value in experiment [8] is reported as “resistant to TRAIL”; in experiment [9], “sensitive to TRAIL”.
